Measured values from ChEMBL document CHEMBL4043200, “Synthesis and biological evaluation of 8-aryl-2-morpholino-7-O-substituted benzo[e][1,3]oxazin-4-ones against DNA-PK, PI3K, PDE3A enzymes and platelet aggregation” (Bioorg Med Chem, 2017).

Experiments:
[1] = biological target: DNA-dependent protein kinase catalytic subunit (Homo sapiens, UniProt P78527); assay: Inhibition of human DNA-PK catalytic subunit at 10 uM using DNA and [EPPLSQEAFADLWKK] peptide substrate by HTRF assay
[2] = biological target: T1, cGMP-inhibited 3',5'-cyclic phosphodiesterase 3A (Homo sapiens, UniProt Q14432); assay: Inhibition of human PDE3A at 10 uM by HTRF assay
T1 sequence (Q14432 whole entry): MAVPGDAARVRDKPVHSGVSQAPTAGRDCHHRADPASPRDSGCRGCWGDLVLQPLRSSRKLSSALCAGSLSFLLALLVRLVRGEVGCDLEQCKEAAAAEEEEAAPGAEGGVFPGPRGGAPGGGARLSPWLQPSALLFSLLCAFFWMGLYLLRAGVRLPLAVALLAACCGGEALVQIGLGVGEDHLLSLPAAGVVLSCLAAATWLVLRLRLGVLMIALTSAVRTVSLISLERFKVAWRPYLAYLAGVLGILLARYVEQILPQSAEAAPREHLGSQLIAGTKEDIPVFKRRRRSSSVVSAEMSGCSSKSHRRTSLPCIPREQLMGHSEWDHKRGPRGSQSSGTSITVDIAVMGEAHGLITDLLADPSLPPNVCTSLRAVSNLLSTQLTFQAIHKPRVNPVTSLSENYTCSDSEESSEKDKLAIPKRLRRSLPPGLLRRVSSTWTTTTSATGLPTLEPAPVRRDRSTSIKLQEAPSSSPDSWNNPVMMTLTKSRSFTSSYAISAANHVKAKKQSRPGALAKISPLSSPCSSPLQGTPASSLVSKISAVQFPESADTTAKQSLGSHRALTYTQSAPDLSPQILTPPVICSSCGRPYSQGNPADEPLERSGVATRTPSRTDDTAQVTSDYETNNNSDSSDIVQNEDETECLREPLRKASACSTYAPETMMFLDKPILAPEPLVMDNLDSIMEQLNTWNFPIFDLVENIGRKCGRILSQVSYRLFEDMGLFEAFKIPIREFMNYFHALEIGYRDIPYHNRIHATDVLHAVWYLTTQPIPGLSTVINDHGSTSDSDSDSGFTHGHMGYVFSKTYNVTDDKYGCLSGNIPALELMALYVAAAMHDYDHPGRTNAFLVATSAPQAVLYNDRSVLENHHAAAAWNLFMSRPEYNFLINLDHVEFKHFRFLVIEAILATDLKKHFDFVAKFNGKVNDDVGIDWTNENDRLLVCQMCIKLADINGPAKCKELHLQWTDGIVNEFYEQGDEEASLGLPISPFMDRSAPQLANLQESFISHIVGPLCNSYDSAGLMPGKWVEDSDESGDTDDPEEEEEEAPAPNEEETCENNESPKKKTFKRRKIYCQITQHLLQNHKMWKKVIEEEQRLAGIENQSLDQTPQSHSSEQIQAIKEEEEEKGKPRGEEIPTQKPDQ

[3] = biological target: T1, cGMP-inhibited 3',5'-cyclic phosphodiesterase 3A; assay: Inhibition of human PDE3A by HTRF assay
[4] = biological target: Phosphatidylinositol 4,5-bisphosphate 3-kinase catalytic subunit alpha isoform (Homo sapiens) (UniProt P42336); assay: Inhibition of wild type PI3K-alpha (unknown origin) assessed as decrease in ATP consumption at 10 uM using phosphotidylinositol bisphosphate and ATP measured after 60 mins by Kinase-Glo reagent based luminescence assay
Sequence of Phosphatidylinositol 4,5-bisphosphate 3-kinase catalytic subunit alpha isoform (Homo sapiens) (P42336 whole entry, canonical isoform): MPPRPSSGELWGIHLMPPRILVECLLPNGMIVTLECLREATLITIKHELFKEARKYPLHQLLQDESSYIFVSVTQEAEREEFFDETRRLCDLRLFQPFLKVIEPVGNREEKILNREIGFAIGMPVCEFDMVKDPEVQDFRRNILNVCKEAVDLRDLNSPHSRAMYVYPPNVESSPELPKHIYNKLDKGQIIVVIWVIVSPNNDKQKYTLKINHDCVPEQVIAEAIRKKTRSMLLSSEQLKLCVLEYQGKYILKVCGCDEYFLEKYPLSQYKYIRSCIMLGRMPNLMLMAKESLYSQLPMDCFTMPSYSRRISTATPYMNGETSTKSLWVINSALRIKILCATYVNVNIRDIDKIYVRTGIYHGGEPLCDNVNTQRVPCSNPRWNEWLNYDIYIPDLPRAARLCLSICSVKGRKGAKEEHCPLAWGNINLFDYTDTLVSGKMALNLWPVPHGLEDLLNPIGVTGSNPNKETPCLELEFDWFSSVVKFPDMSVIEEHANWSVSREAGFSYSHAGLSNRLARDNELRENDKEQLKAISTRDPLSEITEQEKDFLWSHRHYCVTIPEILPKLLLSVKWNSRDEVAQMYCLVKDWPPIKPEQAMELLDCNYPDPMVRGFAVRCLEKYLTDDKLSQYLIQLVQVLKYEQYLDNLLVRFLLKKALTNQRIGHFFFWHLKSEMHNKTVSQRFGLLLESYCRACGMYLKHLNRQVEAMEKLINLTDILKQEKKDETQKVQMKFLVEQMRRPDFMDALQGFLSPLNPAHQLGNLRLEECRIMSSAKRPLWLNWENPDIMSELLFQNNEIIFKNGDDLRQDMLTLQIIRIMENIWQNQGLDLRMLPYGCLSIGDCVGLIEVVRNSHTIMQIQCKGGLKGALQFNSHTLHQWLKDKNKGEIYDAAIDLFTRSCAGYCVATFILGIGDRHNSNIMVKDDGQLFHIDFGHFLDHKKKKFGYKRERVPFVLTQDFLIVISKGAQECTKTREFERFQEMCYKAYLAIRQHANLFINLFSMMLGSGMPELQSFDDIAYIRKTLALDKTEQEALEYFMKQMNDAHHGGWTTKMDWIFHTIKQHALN

[5] = biological target: Phosphatidylinositol 4,5-bisphosphate 3-kinase catalytic subunit beta isoform (Homo sapiens) (UniProt P42338); assay: Inhibition of wild type PI3K-beta (unknown origin) assessed as decrease in ATP consumption at 10 uM using phosphotidylinositol bisphosphate and ATP measured after 60 mins by Kinase-Glo reagent based luminescence assay
Sequence of Phosphatidylinositol 4,5-bisphosphate 3-kinase catalytic subunit beta isoform (Homo sapiens) (P42338 whole entry, looked up, canonical isoform): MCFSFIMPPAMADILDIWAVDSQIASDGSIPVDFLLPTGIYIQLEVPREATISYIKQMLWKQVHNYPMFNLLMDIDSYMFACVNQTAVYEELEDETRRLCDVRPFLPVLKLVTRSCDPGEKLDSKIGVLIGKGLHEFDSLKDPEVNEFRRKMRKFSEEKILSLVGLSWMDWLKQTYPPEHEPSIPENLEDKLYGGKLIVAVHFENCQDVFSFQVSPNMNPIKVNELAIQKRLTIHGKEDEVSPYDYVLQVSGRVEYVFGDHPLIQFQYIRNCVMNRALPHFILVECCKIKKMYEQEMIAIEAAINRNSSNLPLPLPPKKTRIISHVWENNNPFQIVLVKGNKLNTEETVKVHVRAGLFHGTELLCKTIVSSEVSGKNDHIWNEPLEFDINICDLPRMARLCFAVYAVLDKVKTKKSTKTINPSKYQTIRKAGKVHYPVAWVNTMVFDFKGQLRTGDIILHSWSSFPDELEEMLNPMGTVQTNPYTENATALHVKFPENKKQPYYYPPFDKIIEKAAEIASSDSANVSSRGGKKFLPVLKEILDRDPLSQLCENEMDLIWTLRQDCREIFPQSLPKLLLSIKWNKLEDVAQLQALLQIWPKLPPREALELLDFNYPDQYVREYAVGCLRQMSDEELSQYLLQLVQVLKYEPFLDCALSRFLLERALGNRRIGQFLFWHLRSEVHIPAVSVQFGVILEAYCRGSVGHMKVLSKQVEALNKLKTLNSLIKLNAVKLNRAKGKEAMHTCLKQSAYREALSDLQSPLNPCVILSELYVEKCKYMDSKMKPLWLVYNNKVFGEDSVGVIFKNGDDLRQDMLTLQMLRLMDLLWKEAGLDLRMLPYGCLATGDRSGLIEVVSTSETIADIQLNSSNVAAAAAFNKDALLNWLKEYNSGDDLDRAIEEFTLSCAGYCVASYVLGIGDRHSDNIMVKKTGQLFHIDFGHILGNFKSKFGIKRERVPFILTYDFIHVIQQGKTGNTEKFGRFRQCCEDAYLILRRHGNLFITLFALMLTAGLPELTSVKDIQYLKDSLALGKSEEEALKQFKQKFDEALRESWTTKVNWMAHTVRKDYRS

[6] = biological target: Phosphatidylinositol 4,5-bisphosphate 3-kinase catalytic subunit gamma isoform (Homo sapiens) (UniProt P48736); assay: Inhibition of wild type PI3K-gamma (unknown origin) assessed as decrease in ATP consumption at 10 uM using phosphotidylinositol bisphosphate and ATP measured after 60 mins by Kinase-Glo reagent based luminescence assay
Sequence of Phosphatidylinositol 4,5-bisphosphate 3-kinase catalytic subunit gamma isoform (Homo sapiens) (P48736 whole entry, looked up, canonical isoform): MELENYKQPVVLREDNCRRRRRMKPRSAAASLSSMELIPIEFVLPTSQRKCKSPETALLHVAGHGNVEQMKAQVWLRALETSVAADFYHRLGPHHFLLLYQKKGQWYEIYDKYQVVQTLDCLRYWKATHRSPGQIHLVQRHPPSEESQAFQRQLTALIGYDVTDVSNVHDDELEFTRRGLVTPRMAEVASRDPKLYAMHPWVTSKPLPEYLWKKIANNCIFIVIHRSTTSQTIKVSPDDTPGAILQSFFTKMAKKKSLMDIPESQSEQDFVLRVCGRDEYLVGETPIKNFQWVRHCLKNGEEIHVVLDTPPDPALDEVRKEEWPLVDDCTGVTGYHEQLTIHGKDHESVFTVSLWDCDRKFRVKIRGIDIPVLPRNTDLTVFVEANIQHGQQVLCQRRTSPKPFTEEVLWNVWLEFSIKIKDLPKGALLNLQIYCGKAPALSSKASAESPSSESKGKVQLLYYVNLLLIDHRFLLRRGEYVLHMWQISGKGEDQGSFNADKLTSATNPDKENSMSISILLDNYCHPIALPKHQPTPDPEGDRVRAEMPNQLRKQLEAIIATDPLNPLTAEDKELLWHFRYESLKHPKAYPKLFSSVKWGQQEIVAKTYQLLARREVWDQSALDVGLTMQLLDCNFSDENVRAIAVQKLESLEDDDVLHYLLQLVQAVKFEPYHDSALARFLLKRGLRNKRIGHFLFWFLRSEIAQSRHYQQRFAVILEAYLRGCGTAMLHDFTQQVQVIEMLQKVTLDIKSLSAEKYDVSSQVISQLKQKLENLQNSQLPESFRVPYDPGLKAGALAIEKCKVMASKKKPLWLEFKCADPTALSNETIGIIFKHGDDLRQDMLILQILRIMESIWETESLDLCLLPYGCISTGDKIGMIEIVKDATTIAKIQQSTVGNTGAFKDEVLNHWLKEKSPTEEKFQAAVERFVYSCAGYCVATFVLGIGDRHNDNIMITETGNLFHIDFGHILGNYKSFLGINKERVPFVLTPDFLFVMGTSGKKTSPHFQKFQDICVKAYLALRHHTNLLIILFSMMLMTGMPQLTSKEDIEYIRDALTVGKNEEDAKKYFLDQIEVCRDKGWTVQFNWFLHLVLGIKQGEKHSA

[7] = biological target: T2, Phosphatidylinositol 4,5-bisphosphate 3-kinase catalytic subunit delta isoform (Homo sapiens) (UniProt O00329); assay: Inhibition of wild type PI3K-delta (unknown origin) assessed as decrease in ATP consumption at 10 uM using phosphotidylinositol bisphosphate and ATP measured after 60 mins by Kinase-Glo reagent based luminescence assay
T2 sequence (whole entry): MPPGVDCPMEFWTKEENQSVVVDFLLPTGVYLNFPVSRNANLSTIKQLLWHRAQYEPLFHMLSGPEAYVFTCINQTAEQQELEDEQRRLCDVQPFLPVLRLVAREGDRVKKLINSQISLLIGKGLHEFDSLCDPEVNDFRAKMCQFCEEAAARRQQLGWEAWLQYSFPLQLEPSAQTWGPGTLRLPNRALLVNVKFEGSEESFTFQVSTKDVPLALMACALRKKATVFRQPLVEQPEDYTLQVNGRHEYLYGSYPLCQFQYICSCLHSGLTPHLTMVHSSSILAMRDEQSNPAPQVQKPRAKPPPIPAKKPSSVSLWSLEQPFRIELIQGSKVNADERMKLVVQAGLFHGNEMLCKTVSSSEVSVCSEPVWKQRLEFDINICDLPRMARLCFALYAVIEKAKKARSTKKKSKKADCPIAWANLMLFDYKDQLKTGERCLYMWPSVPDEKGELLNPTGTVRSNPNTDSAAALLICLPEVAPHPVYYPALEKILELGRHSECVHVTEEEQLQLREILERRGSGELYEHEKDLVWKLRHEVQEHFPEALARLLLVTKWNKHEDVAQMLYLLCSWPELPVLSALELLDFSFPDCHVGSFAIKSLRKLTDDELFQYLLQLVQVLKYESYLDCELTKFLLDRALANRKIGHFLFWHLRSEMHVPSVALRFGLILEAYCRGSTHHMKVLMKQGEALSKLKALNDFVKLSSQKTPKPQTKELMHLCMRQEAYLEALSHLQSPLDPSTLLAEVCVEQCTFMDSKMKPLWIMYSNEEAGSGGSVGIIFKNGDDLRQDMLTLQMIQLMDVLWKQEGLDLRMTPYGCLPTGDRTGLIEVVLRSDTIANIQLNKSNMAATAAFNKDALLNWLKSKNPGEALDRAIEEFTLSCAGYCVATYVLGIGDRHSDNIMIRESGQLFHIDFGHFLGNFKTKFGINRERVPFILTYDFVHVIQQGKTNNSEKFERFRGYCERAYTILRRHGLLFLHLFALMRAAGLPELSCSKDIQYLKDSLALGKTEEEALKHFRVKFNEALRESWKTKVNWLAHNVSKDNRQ

Platelet = assay: Inhibition of platelet aggregation in human platelet-rich plasma pre-incubated for 5 mins before ADP stimulation for 10 mins; format: functional, cell-based
[8] = biological target: T3, Phosphatidylinositol 4,5-bisphosphate 3-kinase catalytic subunit delta isoform (Homo sapiens, UniProt O00329); assay: Inhibition of wild type PI3K-delta (unknown origin) assessed as decrease in ATP consumption using phosphotidylinositol bisphosphate and ATP measured after 60 mins by Kinase-Glo reagent based luminescence assay
T3 sequence (O00329 whole entry): T2 sequence (whole entry)

## O=c1nc(N2CCOCC2)oc2c(-c3ccsc3)c(OCc3ccccn3)ccc12
[1]
  inhibition: 39.7%
[2]
  inhibition: 88.8%
[3]
  IC50: 3.05 µM
[4]
  inhibition: -8.1%
[5]
  inhibition: -3%
[6]
  inhibition: 4.4%
[7]
  inhibition: 18%

## CN1CCN(CCOc2ccc3c(=O)nc(N4CCOCC4)oc3c2-c2ccccc2)CC1
Platelet
  IC50: 10 µM
[1]
  inhibition: 9.8%
[2]
  inhibition: 11.4%
[4]
  inhibition: 24%
[5]
  inhibition: 31.8%
[6]
  inhibition: 4.3%
[7]
  inhibition: 53.4%

## O=c1nc(N2CCOCC2)oc2c(-c3ccccc3)c(OCc3cccnc3)ccc12
Platelet
  IC50: 80 µM
[1]
  inhibition: 18%
[2]
  inhibition: 50.4%
[4]
  inhibition: 57.9%
[5]
  inhibition: 64.4%
[6]
  inhibition: 25.7%
[7]
  inhibition: 85.5%
[8]
  IC50: 7.2 µM

## O=c1nc(N2CCOCC2)oc2c(-c3ccccc3)c(OCc3ccccn3)ccc12
[1]
  inhibition: 25.7%
[2]
  inhibition: 71.3%
[3]
  IC50: 2.75 µM
[4]
  inhibition: 59.2%
[5]
  inhibition: 66.4%
[6]
  inhibition: 38.1%
[7]
  inhibition: 88.9%
[8]
  IC50: 4 µM

## O=c1nc(N2CCOCC2)oc2c(-c3cc4ccccc4s3)c(OCc3ccccn3)ccc12
[1]
  inhibition: 47.2%
[2]
  inhibition: 77.9%
[3]
  IC50: 3.01 µM
[6]
  inhibition: -1%
[7]
  inhibition: 24.6%

## COc1ccc(-c2c(OCc3ccccn3)ccc3c(=O)nc(N4CCOCC4)oc23)cc1
[1]
  inhibition: 33.8%
[2]
  inhibition: 50.4%
[4]
  inhibition: 28.9%
[5]
  inhibition: 42.9%
[6]
  inhibition: 12.6%
[7]
  inhibition: 85.4%
[8]
  IC50: 2.7 µM

## CC(C)Cn1c(=O)n(C)c(=O)c2[nH]cnc21 [ISOBUTYLMETHYLXANTHINE]
[3]
  IC50: 7 µM

## O=c1nc(N2CCOCC2)oc2c(-c3cccs3)c(OCc3ccccn3)ccc12
[1]
  inhibition: 40.1%
[2]
  inhibition: 74.5%
[3]
  IC50: 2.95 µM
[4]
  inhibition: -0.6%
[5]
  inhibition: 4.1%
[6]
  inhibition: 0.1%
[7]
  inhibition: 21.8%

## COc1ccc(-c2c(OCCBr)ccc3c(=O)nc(N4CCOCC4)oc23)cc1
[1]
  inhibition: 44.4%
[2]
  inhibition: 28%
[4]
  inhibition: 56.3%
[5]
  inhibition: 39.7%
[6]
  inhibition: -8.6%
[7]
  inhibition: 88.8%
[8]
  IC50: 2.7 µM
